Results published in patent publication US20170173002A1, “Compositions and Methods for Treating an Infection” (CMPD LICENSING, LLC, priority 2015, published 2017).

Assays:
[1] = test system: Klebsiella pneumoniae; experiment: Expected efficacy of antibiotic agents; conditions: expected efficacy against Klebsiella pneumoniae
[2] = test system: Shigella flexneri; experiment: Expected efficacy of antibiotic agents; conditions: expected efficacy against Shigella flexneri
[3] = test system: Acinetobacter calcoaceticus; experiment: Expected efficacy of antibiotic agents; conditions: expected efficacy against Acinetobacter calcoaceticus
[4] = test system: Enterobacter cloacae; experiment: Expected efficacy of antibiotic agents; conditions: expected efficacy against Enterobacter cloacae
[5] = test system: Haemophilus influenzae; experiment: Expected efficacy of antibiotic agents; conditions: expected efficacy against Haemophilus influenzae
[6] = test system: Pseudomonas fluorescens; experiment: Expected efficacy of antibiotic agents; conditions: expected efficacy against Pseudomonas fluorescens
[7] = test system: Chlamydia trachomatis; experiment: Expected efficacy of antibiotic agents; conditions: expected efficacy against Chlamydia trachomatis
[8] = test system: Klebsiella (Calymmatobacterium) granulomatis; experiment: Expected efficacy of antibiotic agents; conditions: expected efficacy against Klebsiella (Calymmatobacterium) granulomatis
[9] = test system: Chlamydia pneumoniae; experiment: Expected efficacy of antibiotic agents; conditions: expected efficacy against Chlamydia pneumoniae
[10] = test system: Pseudomonas aeruginosa; experiment: Expected efficacy of antibiotic agents; conditions: expected efficacy against Pseudomonas aeruginosa
[11] = test system: Klebsiella oxytoca; experiment: Expected efficacy of antibiotic agents; conditions: expected efficacy against Klebsiella oxytoca
[12] = test system: Methicillin resistant staph aureus (MRSA); experiment: Expected efficacy of antibiotic agents; conditions: expected efficacy against Methicillin resistant staph aureus (MRSA)
[13] = test system: Haemophilus ducreyi; experiment: Expected efficacy of antibiotic agents; conditions: expected efficacy against Haemophilus ducreyi
[14] = test system: Bordetella pertussis; experiment: Expected efficacy of antibiotic agents; conditions: expected efficacy against Bordetella pertussis
[15] = test system: Citrobacter diversus; experiment: Expected efficacy of antibiotic agents; conditions: expected efficacy against Citrobacter diversus
[16] = test system: Bacteroides fragilis; experiment: Expected efficacy of antibiotic agents; conditions: expected efficacy against Bacteroides fragilis
[17] = test system: Legionella pneumophila; conditions: expected efficacy against Legionella pneumophila
[18] = test system: Shigella dysenteriae; experiment: Expected efficacy of antibiotic agents; conditions: expected efficacy against Shigella dysenteriae
[19] = test system: Shigella boydii; experiment: Expected efficacy of antibiotic agents; conditions: expected efficacy against Shigella boydii
[20] = test system: Streptococcus pyogenes; experiment: Expected efficacy of antibiotic agents; conditions: expected efficacy against Streptococcus pyogenes
[21] = test system: Clostridium perfringens; conditions: expected efficacy against Clostridium perfringens
[22] = test system: Neisseria meningitidis; experiment: Expected efficacy of antibiotic agents; conditions: expected efficacy against Neisseria meningitidis
[23] = test system: Clostridium difficile; experiment: Expected efficacy of antibiotic agents; conditions: expected efficacy against Clostridium difficile
[24] = test system: Staphylococcus epidermidis; experiment: Expected efficacy of antibiotic agents; conditions: expected efficacy against Staphylococcus epidermidis
[25] = test system: Mycoplasma pneumoniae; experiment: Expected efficacy of antibiotic agents; conditions: expected efficacy against Mycoplasma pneumoniae
[26] = test system: Enterococcus faecalis; experiment: Expected efficacy of antibiotic agents; conditions: expected efficacy against Enterococcus faecalis
[27] = test system: Enterococcus faecium; experiment: Expected efficacy of antibiotic agents; conditions: expected efficacy against Enterococcus faecium
[28] = test system: Streptococcus agalactiae; experiment: Expected efficacy of antibiotic agents; conditions: expected efficacy against Streptococcus agalactiae
[29] = test system: Neisseria gonorrhoeae; experiment: Expected efficacy of antibiotic agents; conditions: expected efficacy against Neisseria gonorrhoeae
[30] = test system: Streptococcus pneumoniae; experiment: Expected efficacy of antibiotic agents; conditions: expected efficacy against Streptococcus pneumoniae
[31] = test system: Viridans group streptococci; experiment: Expected efficacy of antibiotic agents; conditions: expected efficacy against Viridans group streptococci
[32] = test system: Escherichia coli; experiment: Expected efficacy of antibiotic agents; conditions: expected efficacy against Escherichia coli
[33] = test system: Staphylococcus aureus (MSSA); experiment: Expected efficacy of antibiotic agents; conditions: expected efficacy against Staphylococcus aureus (MSSA)
[34] = test system: Corynebacterium jeikeium; experiment: Expected efficacy of antibiotic agents; conditions: expected efficacy against Corynebacterium jeikeium
[35] = test system: Enterobacter aerogenes; experiment: Expected efficacy of antibiotic agents; conditions: expected efficacy against Enterobacter aerogenes
[36] = test system: Campylobacter jejuni; experiment: Expected efficacy of antibiotic agents; conditions: expected efficacy against Campylobacter jejuni
[37] = test system: Yersinia pestis; conditions: expected efficacy against Yersinia pestis
[38] = test system: Peptostreptococcus; experiment: Expected efficacy of antibiotic agents; conditions: expected efficacy against Peptostreptococcus
[39] = test system: Corynebacterium urealyticum; experiment: Expected efficacy of antibiotic agents; conditions: expected efficacy against Corynebacterium urealyticum
[40] = test system: Chlamydia psittaci; conditions: expected efficacy against Chlamydia psittaci
[41] = test system: Serratia marcescens; experiment: Expected efficacy of antibiotic agents; conditions: expected efficacy against Serratia marcescens
[42] = test system: Enterobacter sakazakii; experiment: Expected efficacy of antibiotic agents; conditions: expected efficacy against Enterobacter sakazakii
[43] = test system: Acinetobacter baumannii; experiment: Expected efficacy of antibiotic agents; conditions: expected efficacy against Acinetobacter baumannii
[44] = test system: Proteus vulgaris; experiment: Expected efficacy of antibiotic agents; conditions: expected efficacy against Proteus vulgaris
[45] = test system: Acinetobacter lwoffii; experiment: Expected efficacy of antibiotic agents; conditions: expected efficacy against Acinetobacter lwoffii
[46] = test system: Vibrio cholerae; experiment: Expected efficacy of antibiotic agents; conditions: expected efficacy against Vibrio cholerae
[47] = test system: Diphtheroids; experiment: Expected efficacy of antibiotic agents; conditions: expected efficacy against Diphtheroids
[48] = test system: Shigella sonnei; experiment: Expected efficacy of antibiotic agents; conditions: expected efficacy against Shigella sonnei
[49] = test system: Citrobacter freundii; experiment: Expected efficacy of antibiotic agents; conditions: expected efficacy against Citrobacter freundii
[50] = test system: Proteus mirabilis; experiment: Expected efficacy of antibiotic agents; conditions: expected efficacy against Proteus mirabilis
[51] = test system: Moraxella catarrhalis; experiment: Expected efficacy of antibiotic agents; conditions: expected efficacy against Moraxella catarrhalis
[52] = test system: Providencia rettgeri; experiment: Expected efficacy of antibiotic agents; conditions: expected efficacy against Providencia rettgeri
[53] = test system: Salmonella typhi; experiment: Expected efficacy of antibiotic agents; conditions: expected efficacy against Salmonella typhi
[54] = test system: Francisella tularensis; conditions: expected efficacy against Francisella tularensis
[55] = test system: Morganella morganii; experiment: Expected efficacy of antibiotic agents; conditions: expected efficacy against Morganella morganii
[56] = test system: Rickettsiae; conditions: expected efficacy against Rickettsiae
[57] = test system: Providencia stuartii; experiment: Expected efficacy of antibiotic agents; conditions: expected efficacy against Providencia stuartii
[58] = test system: Bartonella bacilliformis; experiment: Expected efficacy of antibiotic agents; conditions: expected efficacy against Bartonella bacilliformis
[59] = test system: Haemophilus parainfluenzae; experiment: Expected efficacy of antibiotic agents; conditions: expected efficacy against Haemophilus parainfluenzae

Measured: Efficacy

NC[C@H]1O[C@H](O[C@H]2[C@H](O)[C@@H](O[C@H]3O[C@H](CO)[C@@H](O)[C@H](N)[C@H]3O)[C@H](N)C[C@@H]2N)[C@H](N)C[C@@H]1O [Tobramycin, tobramycin]
yes: [1] | [2] | [4] | [5] | [6] | [8] | [10] | [11] | [13] | [15] | [18] | [19] | [32] | [35] | [36] | [37] | [41] | [42] | [44] | [48] | [49] | [50] | [51]
not listed: [52] | [53] | [54] | [55] | [56] | [57] | [58] | [59]
no: all other assays above

O=C(O)c1cn(C2CC2)c2cc(N3CCNCC3)c(F)cc2c1=O [Ciprofloxacin, ciprofloxacin]
no: [12] | [16] | [27] | [34]
not listed: [3] | [4] | [7] | [8] | [13] | [14] | [20] | [21] | [23] | [25] | [26] | [28] | [30] | [31] | [33] | [38] | [39] | [40] | [42] | [43] | [45] | [47]
yes: all other assays above
